Results on twelve compounds are retold here after ChEMBL document CHEMBL3046017, “Design, synthesis, and docking studies of telmisartan analogs for the treatment of metabolic syndrome” (Med Chem Res, 2009).

The target in assay [1] is T1, Type-1 angiotensin II receptor A (Rattus norvegicus, UniProt P25095).
T1 sequence (P25095 whole entry): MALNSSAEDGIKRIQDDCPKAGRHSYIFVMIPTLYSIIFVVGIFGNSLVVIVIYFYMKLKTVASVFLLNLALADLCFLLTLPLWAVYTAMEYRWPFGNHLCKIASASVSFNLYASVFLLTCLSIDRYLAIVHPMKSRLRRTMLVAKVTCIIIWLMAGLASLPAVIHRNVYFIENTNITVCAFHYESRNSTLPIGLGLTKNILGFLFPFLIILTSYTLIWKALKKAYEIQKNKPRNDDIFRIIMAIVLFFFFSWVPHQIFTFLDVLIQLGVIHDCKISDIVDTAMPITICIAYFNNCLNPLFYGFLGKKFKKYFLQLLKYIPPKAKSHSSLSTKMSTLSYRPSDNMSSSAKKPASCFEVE
Briefly: Displacement of [125I]-SI-Ang-2 from AT1 receptor in Rattus norvegicus Sprague-Dawley (rat) liver membranes after 2 hr. Further details: species or system Membrane.

The next assay relates to 3T3-L1. Briefly: Induction of adipocyte differentiation in Mus musculus (mouse) 3T3L1 cells at 1 to 5 uM. It counts as functional, cell-based.
Assay [2] addresses T2, Peroxisome proliferator-activated receptor gamma (Homo sapiens) (UniProt P37231).
T2 sequence (whole entry): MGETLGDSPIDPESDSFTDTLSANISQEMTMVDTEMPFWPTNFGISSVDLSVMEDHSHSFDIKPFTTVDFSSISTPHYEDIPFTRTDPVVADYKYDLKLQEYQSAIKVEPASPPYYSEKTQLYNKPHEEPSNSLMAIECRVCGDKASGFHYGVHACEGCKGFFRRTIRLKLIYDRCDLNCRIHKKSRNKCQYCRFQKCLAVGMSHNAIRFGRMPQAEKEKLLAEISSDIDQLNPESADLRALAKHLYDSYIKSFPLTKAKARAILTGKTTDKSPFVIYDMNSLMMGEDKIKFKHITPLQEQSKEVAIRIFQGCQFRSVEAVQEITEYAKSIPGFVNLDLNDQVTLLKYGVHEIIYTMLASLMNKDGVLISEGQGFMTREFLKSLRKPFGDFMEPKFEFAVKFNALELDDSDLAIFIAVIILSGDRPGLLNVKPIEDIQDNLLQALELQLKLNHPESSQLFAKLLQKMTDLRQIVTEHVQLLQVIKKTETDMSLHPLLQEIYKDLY
Briefly: Agonist activity at Homo sapiens (human) PPARgamma LBD expressed in African green monkey CV-1 cells co-expressing GAL4 assessed as beta-galactosidase activity at 10 uM after 24 hr by luciferase reporter gene assay relative to rosiglitazone. It counts as cell-based.

Activity calls are given as the source filed them. The rule behind the calls is not given here.

Turning to `COC(=O)c1ccc(-c2ccc(Cn3cnc4ccc(-c5nc6ccccc6n5C)cc43)cc2)c(C(=O)OC)c1`, the Ki in assay [1] is greater than 10 µM. Moreover, the result with 3T3-L1 was inactive. The %max in assay [2] was found to be 5.7%.
In the same order, the values of `Cn1c(-c2ccc3ncn(Cc4ccc(-c5ccccc5)cc4)c3c2)nc2ccccc21` are greater than 10 µM, “inactive” and 5.7%.
Compound `COC(=O)c1ccc(-c2ccc(Cn3cnc4ccc(-c5nc6ccccc6n5C)cc43)cc2)cc1` showed a Ki in assay [1] greater than 10 µM. The result with 3T3-L1 was inactive. Further, in assay [2], the %max stood at 3.6%.
The like results for `CCCc1nc2c(C)cc(-c3nc4ccccc4n3C)cc2n1Cc1ccc(-c2ccc(C(=O)OC)cc2C(=O)OC)cc1` were, in that order, 0.65 µM, “inactive” and 8%.
The like results for `COC(=O)c1ccccc1-c1ccc(Cn2cnc3ccccc32)cc1` were, in that order, greater than 10 µM, “inactive” and 1.8%.
The like results for `COC(=O)c1ccc(-c2ccc(Cn3c(C)nc4ccc(-c5nc6ccccc6n5C)cc43)cc2)c(C(=O)OC)c1` were, in that order, greater than 10 µM, “inactive” and 2.8%.
`COC(=O)c1ccccc1-c1ccc(Cn2cnc3ccc(-c4nc5ccccc5n4C)cc32)cc1` had a Ki in assay [1] greater than 10 µM. Also, the outcome in the assay on 3T3-L1 was inactive. Besides, the %max in assay [2] came to 6.3%.
In the same order, the values of `COC(=O)c1ccccc1-c1ccc(Cn2cnc3c(C)cccc32)cc1` are greater than 10 µM, “inactive” and 4.7%.
For `CCCc1nc2c(C)cc(-c3nc4ccccc4n3C)cc2n1Cc1ccc(-c2ccccc2C(=O)O)cc1` [TELMISARTAN], in assay [1], the affinity, expressed as Ki, was 0.00023 µM. The outcome in the assay with 3T3-L1 was Active. In addition, the %max in assay [2] amounted to 21.2%.
The like results for `COC(=O)c1ccc(-c2ccc(Cn3c(C)nc4ccc(-c5nc6ccccc6n5C)cc43)cc2)cc1` were, in that order, greater than 10 µM, “inactive” and 7.3%.
The like results for `CCCc1nc2c(C)cc(-c3nc4ccccc4n3C)cc2n1Cc1ccc(-c2ccc(C(=O)O)cc2C(=O)O)cc1` were, in that order, 0.188 µM, “inactive” and “inactive”.
The like results for `COC(=O)c1ccccc1-c1ccc(Cn2c(C)nc3ccc(-c4nc5ccccc5n4C)cc32)cc1` were, in that order, greater than 10 µM, “inactive” and 6.8%.
